Columns and labels:
[1] = tested on: Rho-associated kinase (ROCK); settings: cited from earlier work
human ES cells = assay: Seeding of individualized human ES cells in 96-well plates; format: cell-based; settings: similar to HA-100 but at 10-fold lower concentration

## Cc1cncc2cccc(S(=O)(=O)N3CCCNC[C@@H]3C)c12 [Clone H-1152, (S)-(+)-2-Methyl-1-[(4-methyl-5-isoquinolinyl)sulfonyl]homopiperazine]
[1]
  potency relative to HA-100: approximately ten-fold
Human ES cells
  seeding of individualized human ES cells: very efficient seeding
